Results from a melting point compilation (Tetko et al.; mined from patent text by program, amines drawn as free bases though some values may be those of a salt).

Row | Compound | melting point [°C]
1 | CC1CC2(CN(O)C2=O)c2cc(F)ccc2O1 (stereo unspecified) | 118 to 120
2 | CCOC(=O)c1c(N)nn(-c2c(Cl)cc(C(F)(F)F)cc2Cl)c1N | 196 to 197
3 | CCCSc1c2c(=O)n(C)c(=O)n(CC(C)C)c2nn1Cc1cccc2ccccc12 | 105
4 | CCCNC(=O)N1C2=NC(C)(C)N(CCC)C(=O)N2c2ccccc21 | 72 to 74
5 | CNCc1ccccc1-c1ccc(C(=O)N2Cc3ccc(C(=O)NCc4cccnc4)n3Cc3ccccc32)cc1 | 149 to 150
6 | CCOc1nn(Cc2ccc(OCc3ccc4ccccc4n3)nc2)cc1CCC(=O)O | 133 to 134
7 | O=C(c1ccccc1)c1ccc(Oc2ccc(S(=O)(=O)Cc3ccccc3)cn2)cc1 | 146 to 147
8 | COC(=O)CC[C@H](NC(=O)CCCCCCC1CNc2nc(NC(=O)C(C)(C)C)nc(O)c2C1)C(=O)OC (stereo partly specified) | 152 to 160
9 | CCC(=O)NC1CCc2c([nH]c3ccccc23)C1 (stereo unspecified) | 169 to 170
10 | COc1ccc(CCN2C=CC=C3C2=Nc2cc(OC)ccc2S(=O)(=O)N3C)cc1 | 65 to 68
11 | CC(=O)CC(=O)C=Cc1ccccc1 | 82
12 | CSc1nc(=O)[nH]c(C)c1Cl | 268
13 | Brc1ccc(N(Cc2ccccc2)c2ccccc2)cc1 | 97 to 98
14 | O=c1[nH]c2ccc(Cl)cc2c2cc(CO)nn12 | 316 to 318
15 | CCC(=O)Nc1cc(NC(=O)CC)cc([N+](=O)[O-])c1 | 197 to 198
16 | COc1cc(Cl)cc2c1OC(C)(COS(=O)(=O)c1ccc(C)cc1)C2 (stereo unspecified) | 113 to 115
17 | O=C(O)C(CCc1ccccc1)NS(=O)(=O)c1ccc2c(c1)S(=O)(=O)c1ccccc1O2 (stereo unspecified) | 170 to 174
18 | CC(=O)N(C1=C(Cl)C(=O)c2c(cnn2C)C1=O)C1CC1 | 171
19 | Fc1ccc(C(CCCN2CCN(c3cc4ccccc4cn3)CC2)c2ccc(F)cc2)cc1 | 116 to 118
20 | CC(C)n1cc(-c2nc(C(N)=O)c(N)nc2-c2ccc(C#N)cc2)ccc1=O | 292
21 | CCOc1cc(C=C(Br)Br)ccc1OC | 41 to 42
22 | CNc1cccc(OC)c1[N+](=O)[O-] | 58 to 59
23 | COc1ccc(Cl)cc1C(=O)NCCc1ccc(-c2ccc(OC(C)C(=O)O)cc2)cc1 (stereo unspecified) | 145
24 | CC(C)c1cccc(C(C)C)c1NC(=O)[C@H](C)N | 118 to 122
25 | O=c1[nH]c(N2CCN(CCCCN3CCCCC3)CC2)cc2c(Br)cccc12 | 165 to 166
26 | O=[N+]([O-])c1ccc2c(c1)CCC(CO)O2 (stereo unspecified) | 96.5

Row | Compound | melting point [°C]
27 | COc1cc(NC(NC(C)C(C)(C)C)=C(C#N)S(C)(=O)=O)cc(C(F)(F)F)c1 (stereo unspecified) | 110 to 113
28 | COC(=O)COc1ccc([C@H]2c3ccc(OCc4ccccc4)cc3OC[C@H]2c2ccccc2)cc1 (racemic) | 143 to 144
29 | O=C(O)CCCCc1ccn2cncc2c1 | 158 to 161
30 | CC(=O)c1cc(C[C@H](NC(=O)c2c(Cl)cccc2Cl)C(=O)O)ccc1-c1ccccc1 | 109 to 111
31 | CSC(=O)N(C)c1nnc(-c2cccnc2)s1 | 192 to 194
32 | Cn1cnnc1Sc1nc(-c2ccc(Cl)cc2)c(CCC(=O)O)o1 | 186 to 188
33 | c1ccn(NC2=NCCN2)c1 | 183 to 184
34 | CCNC1=C(c2ccc(OC)cc2)C(=O)c2cc(OC)ccc21 | 88 to 90
35 | CCCCCCCCCc1ccc(C(CCCC=O)C(=O)OC)cc1 (stereo unspecified) | 38 to 39
36 | C[C@H](NC(=O)c1c[nH]c2ncc(-c3cccs3)nc12)C(C)(C)C | 311 to 312
37 | CCOC(=O)Cc1nc(-c2ccc(F)cc2)oc1-c1cccs1 | 116 to 117
38 | CC(C)n1c(C(=O)Cl)c(-c2ccc(F)cc2)c2ccccc2c1=O | 132 to 134
39 | Nc1cc(C(=O)c2ccc(Oc3ccccc3)c(N)c2)ccc1Oc1ccccc1 | 153 to 154
40 | O=C1C(c2cccn2Cc2ccccc2)=CC(=O)c2ncccc21 | 172 to 173
41 | c1cncc(CCNc2nc(-c3cccs3)ncc2-n2cccn2)c1 | 133 to 134
42 | CC(C)(C)OC(=O)NC1CCN(C/C=C\CC(c2ccccc2)c2ccccc2)CC1 | 105 to 108
43 | COCCN1CCc2ccc(Nc3ncc(Cl)c(Nc4ccccc4C(=O)NCC(C)C)n3)cc2CC1 | 178 to 181
44 | OCc1snc(Cl)c1Cl | 94 to 95
45 | Cn1cc(-c2cccc(O)c2)c(=O)c(C2CCCCC2)c1 | 155 to 165
46 | OCCc1c(-c2ccccc2)nc(Cl)n2ncnc12 | 104 to 105
47 | Cn1cc([N+](=O)[O-])nc1C(Cl)Cl | 153
48 | O=C(C#CCCc1cccc(CF)n1)Nc1ccc(F)cc1 | 110
49 | CCn1c(COC(=O)NC(=O)C(C)(C)C)nc(C(C)C)c1Sc1cc(Cl)cc(Cl)c1 | 157 to 159
50 | CCCc1noc(/C=C/c2cn(-c3ccccc3)nc2OCc2ccc(OCc3nc(-c4ccco4)oc3C)c(OC)c2)n1 | 192 to 193
51 | COc1ccc(CN2C(=O)C3CC(c4ccc([N+](=O)[O-])cc4)(C3)C2=O)cc1 | 146 to 147
